Experimental data: US7122550B2, “Protein kinase inhibitors” (Cytopia Pty Ltd, priority 2002, dated 2006)

Legend:
Assay type in all cases: cell-based
DU145 = test: Cellular growth inhibition assay (MTT), DU145 cells; details: Homo sapiens, DU-145, 40 hr incubation, read-out: DU145: growth inhibitory activity
Procedure: (§1) Cell suspensions were prepared by harvesting cells from culture. (Cells used in this test should be in later log phase growth and high viability.) Cells were diluted in correct growth medium to 1.1×final concentration (from 50000 cell/mL to 200,000 cell/mL, depending on cell line).
(§2) Compounds to be tested were added (10 μL, 10×final concentration) to a flat bottom 96-well plate. The cellular suspension (90 μL per well) was added, and the plate incubated for 40 hr at 37° C., 5% CO2. MTT (20 μL per well, 5 mg/mL in PBS) was added and the plates were returned to the incubator for a further 6 hours. Lysis buffer (100 μL per well, 10% SDS, 0.01N HCl) was added and the plate stored in the incubator overnight. The plate was then read at 590 nm.

Tel-Jak2 = target: T1, Tel-Jak2 (Homo sapiens, UniProt O60674); test: Cellular growth inhibition assay (MTT), Tel-Jak2 transformed BaF3 cell line; details: 40 hr incubation, read-out: Jak2: growth inhibitory activity (>50%) in transformed cell line Tel-Jak2
T1 construct: The regions encompassing the kinase domains of JAK2 (nucleotides 2994–3914); TEL (ETV6, human P41212) N-terminal part encoded by nucleotides 1-487 of TEL; expressed in transfected cells; host or cells: BaF3 (murine) bearing pTET-off, transfected with pTELJAK2 (pTRE2 vector); the other entry of the earlier key: ETV6 (P41212, Transcription factor ETV6)
T1 sequence (O60674 with tags, fused parts or gaps): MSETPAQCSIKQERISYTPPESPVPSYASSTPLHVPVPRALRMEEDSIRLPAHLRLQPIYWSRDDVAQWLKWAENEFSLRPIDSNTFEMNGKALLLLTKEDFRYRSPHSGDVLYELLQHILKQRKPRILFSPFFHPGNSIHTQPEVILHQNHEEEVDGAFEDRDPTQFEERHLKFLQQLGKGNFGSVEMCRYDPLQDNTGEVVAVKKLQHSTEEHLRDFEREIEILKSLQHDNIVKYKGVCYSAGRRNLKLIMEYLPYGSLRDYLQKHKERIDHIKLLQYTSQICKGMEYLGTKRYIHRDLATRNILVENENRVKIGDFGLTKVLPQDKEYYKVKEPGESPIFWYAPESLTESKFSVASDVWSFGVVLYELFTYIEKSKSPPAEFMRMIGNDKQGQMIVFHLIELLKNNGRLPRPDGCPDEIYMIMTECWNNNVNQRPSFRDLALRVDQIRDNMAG
Text: (§3) The coding region encompassing nucleotides 1–487 of TELwas amplified by PCR using the oligonucleotides 5TEL (5′-GGAGGATCCTGATCTCTCTCGCTGTGAGAC-3′) and 3TEL (5′-AGGC GTCGACTTCTTCTTCATGGTTCTG-3′) and U937 mRNA as template. A BamHI site was present into the 5TEL Primer, a SalI site was incorporated into the 3TEL primer. The regions encompassing the kinase domains of JAK2 (nucleotides 2994–3914; JAK2F 5′-ACGC GTCGACGGTGCCTTTGAAGACCGGGAT-3′; JAK2R 5′-ATAGTTTAGCGGCCGCTCAGAATGAAGGTCATTT-3′) and JAK3 (nucleotides 2520–3469; JAK3F 5′-GAAGTCGACTATGCCTGCCAAGACCCCACGATCTT-3′; JAK3R 5′-GGATCTAGACTATGAAAAGGACAGGGAGTGGTGTTT-3′) were generated by PCR using Taq DNA Polymerase (Gibco/BRL) and U937 mRNA as template. A SalI site was incorporated into the forward primer of JAK2 and JAK3, a NotI site was incorporated into the JAK2 reverse primer and a Xba I site was added to the reverse primer of JAK3.
(§4) A TEL/Jak2 fusion was generated by digestion of the TELPCR product with BamHI/SalI, digestion of the JAK2 PCR product with SalI/NotI followed by ligation and subcloning into the mammalian expression Vector pTRE 2 (Clontech) digested with BamHI-NotI (pTELJAK2). For JAK3 SalI/NotI cleaved kinase domain PCR product was ligated with BamHI/SalI cleaved TELproduct followed by ligation into BamHI/NotI cleaved pTRE2 (pTELJAK3).
(§5) The growth factor dependent myelomonocytic cell line BaF3 bearing the pTET-off plasmid (Clontech) was transfected with either pTELJAK2 or pTELJAK3 and the cells selected for factor independent growth. BaF 3 wild type cells were cultured in DMEM 10% FCS, 10% WEHI 3B conditioned medium. BaF3 TELJAK cells were cultured in DMEM 10% Tet-System Approved FBS (without WEHI 3B conditioned medium).
as §1, §2

Tel-Jak3 = target: T2, Tel-Jak3 (Homo sapiens, UniProt P52333); test: Cellular growth inhibition assay (MTT), Tel-Jak3 transformed BaF3 cell line; details: 40 hr incubation, read-out: Jak3: growth inhibitory activity (>50%) in transformed cell line Tel-Jak3
T2 construct: TEL (ETV6, human P41212) N-terminal part encoded by nucleotides 1-487 of TEL; expressed in transfected cells; host or cells: BaF3 (murine) bearing pTET-off, transfected with pTELJAK3 (pTRE2 vector); the other entry of the earlier key: ETV6 (P41212, Transcription factor ETV6)
T2 sequence (P52333 with tags, fused parts or gaps): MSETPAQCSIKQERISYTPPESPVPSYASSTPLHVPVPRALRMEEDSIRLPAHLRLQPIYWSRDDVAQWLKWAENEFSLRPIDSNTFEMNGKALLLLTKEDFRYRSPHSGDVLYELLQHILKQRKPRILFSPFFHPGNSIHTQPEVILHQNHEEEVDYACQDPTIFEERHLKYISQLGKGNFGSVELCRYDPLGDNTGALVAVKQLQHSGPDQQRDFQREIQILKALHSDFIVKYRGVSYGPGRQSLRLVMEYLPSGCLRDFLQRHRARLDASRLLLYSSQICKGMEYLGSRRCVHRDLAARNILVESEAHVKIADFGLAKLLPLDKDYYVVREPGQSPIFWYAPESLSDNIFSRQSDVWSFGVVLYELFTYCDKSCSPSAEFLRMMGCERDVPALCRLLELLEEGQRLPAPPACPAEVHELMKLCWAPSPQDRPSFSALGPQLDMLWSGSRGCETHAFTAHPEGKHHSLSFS
Text: as §3, §4, §5, §1, §2

| SMILES | inhibition at 50 µM (DU145) | inhibition at 50 µM (Tel-Jak2) | inhibition at 50 µM (Tel-Jak3) |
| --- | --- | --- | --- |
| COc1cc(-c2cncc(NCc3ccc(Cl)c(Cl)c3)n2)ccc1O [Chemistry 139] | < 50% | > 50% | > 50% |
| COc1cc(-c2cncc(NC(C)c3cccc(NC(C)=O)c3)n2)ccc1O (stereo not drawn) [Chemistry 276] | < 50% | > 50% | > 50% |
| C[C@H](Nc1cncc(-c2ccc(O)c(Cl)c2)n1)c1ccccc1 [Chemistry 175] | < 50% | < 50% | > 50% |
| COc1ccc([C@H](C)Nc2cncc(-c3ccc(O)c(OC)c3)n2)cc1 [Chemistry 117] | < 50% | > 50% | > 50% |
| COc1cc(-c2cncc(Nc3cc(Cl)ccc3C)n2)ccc1O [Chemistry 130] | > 50% | > 50% | < 50% |
| COc1cc(-c2cncc(NC(C)c3ccc(-n4ccnc4)cc3)n2)ccc1O (stereo not drawn) [Chemistry 186] | < 50% | > 50% | > 50% |
| COc1cc(-c2cncc(NC(C)c3ccc(NC(=O)c4cccnc4)cc3)n2)ccc1O (stereo not drawn) [Chemistry 280] | < 50% | > 50% | > 50% |
| COc1cc(-c2cncc(N(C)Cc3ccccc3)n2)ccc1O [Chemistry 137] | < 50% | > 50% | > 50% |
| COc1cc(-c2cncc(NC(C)c3ccc(NC(=O)C4CCCN4C(=O)OC(C)(C)C)cc3)n2)ccc1O (stereo not drawn) [Chemistry 281] | > 50% | > 50% | > 50% |
| COc1cc(-c2cncc(NC(C)c3ccc(C(=O)NCC4CC4)cc3)n2)ccc1O (stereo not drawn) [Chemistry 354] | < 50% | > 50% | > 50% |
